# Laboratory results taken from publication PMC4871480, “A Miniaturized Screen of a Schistosoma mansoni Serotonergic G Protein-Coupled Receptor Identifies Novel Classes of Parasite-Selective Inhibitors” (PLoS Pathogens, 2016).
# Entries after “also recorded” stand apart in the source; their conditions may differ. Where two headings read alike, the source gives them in different places.
# Tests used:
# Sm.5HTR [1] = molecular target: T1, Sm.5HTR (Schistosoma mansoni, UniProt G4V5G4); test: cell-based; format: cell-based; conditions: for GPCR inhibition profile compared with rotundine: Sm.5HTR vs Hs.5HT7R, Fig F in S1 Text; for potency (IC50) at Sm.5HTR: Fig 7 quadrant; for ligand type at Sm.5HTR: Fig 5F; for activity at Sm.5HTR: antagonist/modulator screening; for Emax: HEK293, read-out: 5-HT Emax; for agonist efficacy at Sm.5HTR: dose response, Fig 5A
# Description: (§1) HEK293 cells (ATCC CRL-1573.3) were cultured in DMEM supplemented with 10% fetal bovine serum (FBS), penicillin (100 units/ml), streptomycin (100 μg/ml), and L-glutamine (290 μg/ml). Cells were transiently transfected (ViaFect, Promega) as per the manufacturer’s protocol at a density of 2x10^6 cells per T-25 cell-culture flask. Cells were transfected with plasmids encoding GloSensor (Promega) and either Sm.5HTR (Smp_126730, GenBank accession number KF444051.1) or Sm.5HTRL (KX150867), bothGPCRs being codon optimized for mammalian expression, or Hs.5HT7a (GenBank accession number NM_000872.4, R&D Systems) subcloned into pCS2(-). Cell culture reagents were from Invitrogen. Epitope tagged constructs were used to verify expression, and untagged constructs used for all luminescence assays.
# (§2) For assays performed on adherent cells, HEK-293 cells were transferred one day post transfection to 96 well, solid white plates (Corning, cat # 3917) coated with 0.01% poly-L-lysine (Sigma Aldrich) at a density of 5 x 10^4 cells / well in DMEM supplemented with 1% dialyzed FBS (Gibco). After overnight culture (37°C/5% CO2), media was decanted and replaced with 100μL / well HBSS supplemented with 0.1% BSA, 20mM HEPES (pH 7.4) and GloSensor reagent. Plates were allowed to equilibrate at room temperature for two hours prior to performing luminescence assays (GloMax-Multi Detection System plate reader, Promega). Conditions for individual assays were described as per figure legends. The standard assay to detect changes in cAMP utilized the F22 sensor in media supplemented with IBMX (200μM). Ligands were added at a concentration of 20x per well for experiments (i.e. 5μl of drug solution added to 100μl of cells). […] For the resazurin reduction assay for cellular viability, cells were incubated with resazurin (final concentration, 10μM) and tested ligands with fluorescence measurements (560 nm excitation/590 nm emission) made at 1.5hr intervals.
# [2] = test system: S. mansoni schistosomules; test: Schistosomule contractility assay; format: in vivo, Schistosoma mansoni
# Description: Biomphalaria glabrata (M-line) snails exposed to Schistosoma mansoni miracidia (Strain PR-1) were obtained from BEI Resources (Cat. number NR-21961) and cercaria were shed following exposure to light (1.5 hours). Cercaria were manually transformed into schistosomula by vortexing (3 x 45 seconds, each separated by 3 minutes on ice) and tails were removed by gradient centrifugation (24ml Percoll, 4ml 10X EMEM, 1.5ml penicillin-streptomycin, 1ml of 1M HEPES in 0.85% NaCl, 9.5ml distilled water) at 500g/15min at 4°C. Supernatant containing tails was discarded, and schistosomules were resuspended in Basch media and incubated (37°C, 5% CO2) overnight before conducting mobility assays. For contractility experiments, somules were incubated in 5-HT free Basch media to resolve a basal contractility rate. […] Schistosomules were incubated in 24 well plates (~200 schistosomules / 0.5mL media per well) for 30 minutes (37°C/5% CO2) prior to acquiring videos of schistosome movement (1 minute recordings / well) using a Nikon Coolpix 5700 camera affixed to a Nikon Eclipse TS100 microscope (10x objective). The WrmTrck plugin for ImageJ was used to quantify worm mobility. Briefly, the major axis of each schistosomule body length was extracted from the raw output of WrmTrck and an average length was determined for the duration of the recording. Contractions were quantified by determining the number of episodes during which the worm body length deviated from the average by over 20%. S. mansoni protocols were approved by the Iowa State University Institutional Biosafety Committee.
# adult schistosomes = test: Adult schistosome mobility assay; format: in vivo, Schistosoma mansoni
# Description: Female Swiss Webster mice exposed to Schistosoma mansoni cerceria (Strain PR-1) at 5–7 weeks old were obtained from BEI Resources (Cat. number NR-34792) and sacrificed 6–8 weeks post-infection. Mature S. mansoni were harvested from the mesenteric vasculature by portal perfusion. Briefly, mice were anesthetized in a CO2 chamber and sacrificed by cervical dislocation. Mice were perfused with sodium citrate (25mM) and adult schistosomes were harvested from the mesenteric veins. Schistosomes were washed in RPMI media containing penicillin (1000 units/mL), streptomycin (1000 μg/mL) and 25mM HEPES, then transferred to RPMI media supplemented with 2mM glutamine and 5% heat inactivated FBS. Worms were incubated overnight at 37°C, 5% CO2 before conducting assays. Recordings of adult schistosome movement were captured using a Zeiss Discovery v20 stereomicroscope and a QiCAM 12-bit cooled color CCD camera. Videos were acquired at a rate of four frames per second for one minute. Recordings of female worms were acquired at 7.6x magnification, 30 mm field of view and recordings of male worms were acquired at a 5.1x magnification, 45 mm field of view. Analysis was performed in ImageJ as described previously. Briefly, image (.tiff) stacks of each recording were imported and processed by converting to binary format so that pixel measurements represent area of the worms’ bodies. Mobility was quantified by measuring the difference in pixels resulting from subtracting the value of one frame (n) from those of the next frame in the sequence (n+1). This difference was expressed as a percentage of the pixels in the initial frame (n), providing a measurement of the worms’ movement over a period of 0.25 seconds. This calculation was performed for each frame in the video, and the results were averaged over the length of the recording. Values reported represent the mean (±) standard error of at least three independent experiments. Animal work was carried out with the oversight and approval of the Laboratory Animal Resources facility at the Iowa State University College of Veterinary Medicine.
# Hs.5HT7R = molecular target: T2, Hs.5HT7R (Homo sapiens, UniProt P34969); test: GloSensor cAMP assay in HEK293 cells expressing Hs.5HT7R; format: cell-based; conditions: for potency (IC50) at Hs.5HT7R: Fig 7 quadrant
# T2 construct: host or cells: HEK293 (ATCC CRL-1573.3), transient transfection, pCS2(-) vector
# Description: as §1, §2
# Sm.5HTR [3] = molecular target: T1, Sm.5HTR; test: Antagonist washout (inactivating antagonist) GloSensor assay on suspension cells; format: cell-based; conditions: for inhibition of Sm.5HTR after antagonist wash-out: 10μM for 30 mins, washout, 5-HT response 1hr later
# Description: To test putative irreversible antagonists, assays on suspension cells were performed one day post transfection. […] Compounds were added at 10 μM, and after 30 minute incubation at room temperature cells were centrifuged (300 RCF, 5 minutes) and resuspended in fresh media. This wash step was repeated, and cells were resuspended in HBSS supplemented with 0.1% BSA, 20mM HEPES and GloSensor reagent. Cells were gently rotated to prevent aggregation and settling over the course of the two hour equilibration period, after which time they were transferred to 96 well plates at a density of 8 x 10^4 cells / 100μL per well and assays described for adherent cells.
# Sm.5HTRL = Sm.5HTRL (Schistosoma mansoni, UniProt A0A173FEI8); test: GloSensor cAMP assay in HEK293 cells expressing Sm.5HTRL; format: cell-based; conditions: for inhibition of 5-HT evoked cAMP generation through Sm.5HTRL: antagonists 10μM, 5-HT EC80 dose
# Description: as §1, §2
# [4] = IC50 (Hs.5HT7R) / IC50 (Sm.5HTR)
# [5] = EC50 (agonist, cAMP generation), F22 sensor with IBMX
# T2 sequence (P34969 1-445 isoform P34969-2): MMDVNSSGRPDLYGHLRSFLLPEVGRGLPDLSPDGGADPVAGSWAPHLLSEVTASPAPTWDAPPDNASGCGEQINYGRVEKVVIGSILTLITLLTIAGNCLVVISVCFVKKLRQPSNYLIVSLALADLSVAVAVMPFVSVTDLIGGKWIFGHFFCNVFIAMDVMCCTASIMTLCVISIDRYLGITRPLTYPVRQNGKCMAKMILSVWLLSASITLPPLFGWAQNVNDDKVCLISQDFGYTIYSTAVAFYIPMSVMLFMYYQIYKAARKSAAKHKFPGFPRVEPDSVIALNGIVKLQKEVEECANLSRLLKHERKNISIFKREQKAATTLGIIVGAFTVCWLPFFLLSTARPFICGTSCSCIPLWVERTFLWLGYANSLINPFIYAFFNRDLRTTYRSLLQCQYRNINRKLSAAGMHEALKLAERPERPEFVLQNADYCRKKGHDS
# T1 sequence (G4V5G4 entry or part of it): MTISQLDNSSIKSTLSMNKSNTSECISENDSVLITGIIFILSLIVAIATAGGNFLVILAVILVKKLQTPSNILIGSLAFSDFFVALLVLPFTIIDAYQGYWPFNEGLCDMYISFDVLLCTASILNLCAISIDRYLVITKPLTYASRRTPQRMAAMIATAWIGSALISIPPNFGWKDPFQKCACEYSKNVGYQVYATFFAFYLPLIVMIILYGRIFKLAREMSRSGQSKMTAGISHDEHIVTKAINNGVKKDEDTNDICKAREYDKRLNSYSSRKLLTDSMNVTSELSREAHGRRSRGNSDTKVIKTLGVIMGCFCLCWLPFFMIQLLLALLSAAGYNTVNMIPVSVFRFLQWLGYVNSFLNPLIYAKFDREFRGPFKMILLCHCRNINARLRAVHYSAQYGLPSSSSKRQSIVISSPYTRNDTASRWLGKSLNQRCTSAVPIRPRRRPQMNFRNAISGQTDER
# Sm.5HTRL, sequence (A0A173FEI8 entry or part of it): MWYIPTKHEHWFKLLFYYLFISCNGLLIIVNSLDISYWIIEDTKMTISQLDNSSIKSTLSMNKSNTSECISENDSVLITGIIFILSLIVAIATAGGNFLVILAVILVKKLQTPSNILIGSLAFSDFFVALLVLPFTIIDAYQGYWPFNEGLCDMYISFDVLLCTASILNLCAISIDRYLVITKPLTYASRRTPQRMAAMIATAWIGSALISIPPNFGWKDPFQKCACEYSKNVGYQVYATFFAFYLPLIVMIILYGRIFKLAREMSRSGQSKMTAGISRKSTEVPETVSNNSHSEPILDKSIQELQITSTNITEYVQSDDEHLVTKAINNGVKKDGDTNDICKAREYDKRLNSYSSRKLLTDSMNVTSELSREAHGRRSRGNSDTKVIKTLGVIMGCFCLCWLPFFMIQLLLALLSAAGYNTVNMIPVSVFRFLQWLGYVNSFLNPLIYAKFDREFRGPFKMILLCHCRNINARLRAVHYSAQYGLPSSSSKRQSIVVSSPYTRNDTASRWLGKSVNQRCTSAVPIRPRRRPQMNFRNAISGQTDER
smiles,measurement,setting,value
COc1cc2c(cc1OC)-c1cc3ccc(OC)c(OC)c3c[n+]1CC2 [palmatine],GPCR inhibition profile compared with rotundine,Sm.5HTR [1],decreased potency and selectivity for Sm.5HTR
COc1ccc2cc1Oc1ccc(cc1)C[C@H]1c3cc(c(OC)cc3CCN1C)Oc1c(OC)c(OC)cc3c1[C@H](C2)N(C)CC3 [tetrandrine],potency (IC50) at Sm.5HTR,Sm.5HTR [1],sub-μM potency
same,IC50,"[2]; Schistosoma mansoni, read-out: IC50 (inhibition of 5-HT evoked contractions)",≤ 1000 nM
same,effect on 5-HT evoked increases in worm movement,"adult schistosomes; 10μM, 5-HT 100μM",lacked an inhibitory effect
same,effect on basal movement of adult worms,"adult schistosomes; 10μM, worms at rest",enhanced movements of isolated female worms
same,potency (IC50) at Hs.5HT7R,Hs.5HT7R,supra-μM potency
CN1CCC(=C2c3ccccc3C=Cc3ccccc32)CC1 [cyproheptadine],acute inhibition of 5-HT (10μM) response at Sm.5HTR,Sm.5HTR [1],acutely inhibited
same,time to full reversal of inhibition after ligand removal,"Sm.5HTR [3]; 10μM, 30 mins preincubation",≤ 1 h
"O=C(C1CCCCC1)N1CC(=O)N2CCc3ccccc3C2C1 (stereo not shown) [Praziquantel, praziquantel]",ligand type at Sm.5HTR,Sm.5HTR [1],Inactive
same,activity at Sm.5HTR,Sm.5HTR [1]; listed as PZQ,did not reveal any modulation of receptor activity; also recorded: did not yield any effect
COc1cc2c(cc1OC)C1CC(=O)C(CC(C)C)CN1CC2 (stereo not shown) [tetrabenazine],potency (IC50) at Sm.5HTR,Sm.5HTR [1],sub-μM potency
same,GPCR inhibition profile compared with rotundine,Sm.5HTR [1],selectivity for Sm.5HTR retained
same,inhibition at 100 µM,"[2]; Schistosoma mansoni, read-out: inhibition of 5-HT evoked contractility",~50%
same,potency (IC50) at Hs.5HT7R,Hs.5HT7R,supra-μM potency
COc1cc2nc(N(C)CCCNC(=O)C3CCCO3)nc(N)c2cc1OC (stereo not shown) [alfuzosin],selectivity for Sm.5HTR over Hs.5HT7R,Sm.5HTR [1]; [4],clear selectivity for Sm.5HTR; also recorded: clear bias toward Sm.5HTR
same,inhibition of 5-HT evoked cAMP generation through Sm.5HTRL,Sm.5HTRL,inhibited 5-HT evoked cAMP generation
CN1C[C@H](C(=O)N[C@]2(C)O[C@@]3(O)[C@@H]4CCCN4C(=O)[C@H](Cc4ccccc4)N3C2=O)C[C@@H]2c3cccc4[nH]cc(c34)C[C@H]21 [dihydroergotamine],EC50,Sm.5HTR [1]; [5],315 nM
same,ligand type at Sm.5HTR,Sm.5HTR [1],Agonist
same,Emax,Sm.5HTR [1],52 ± 1%
same,EC50,Sm.5HTR [1]; pEC50 ± S.E.M,316 nM
CSc1ccc2c(c1)C(N1CCN(C)CC1)Cc1ccccc1S2 (stereo not shown) [methiothepin],acute inhibition of 5-HT (10μM) response at Sm.5HTR,"Sm.5HTR [1]; drug 10μM, preincubation",antagonism of 5-HT stimulated cAMP generation; also recorded: Inhibition of 5-HT response
same,inhibition of Sm.5HTR after antagonist wash-out,Sm.5HTR [3],long-lasting inhibition
same,potency for Sm.5HTR inhibition after washout,"Sm.5HTR [3]; titration, Fig 6E",most potent
CNCCC(Oc1ccc(C(F)(F)F)cc1)c1ccccc1 (stereo not shown) [fluoxetine],selectivity for Sm.5HTR over Hs.5HT7R,Sm.5HTR [1]; [4],preferential selectivity toward Sm.5HTR
Cc1nc2n(c(=O)c1CCN1CCC(c3noc4cc(F)ccc34)CC1)CCCC2 [risperidone],acute inhibition of 5-HT (10μM) response at Sm.5HTR,Sm.5HTR [1],Inhibition of 5-HT response
same,inhibition of Sm.5HTR after antagonist wash-out,Sm.5HTR [3],long-lasting inhibition
CCN1CCCC1CNC(=O)c1cc(S(=O)(=O)CC)c(N)cc1OC (stereo not shown) [amisulpride],activity at Sm.5HTR,Sm.5HTR [1],modest effects
CNCC[C@@H](Oc1ccccc1C)c1ccccc1 [atomoxetine],selectivity for Sm.5HTR over Hs.5HT7R,Sm.5HTR [1],clear selectivity for Sm.5HTR; also recorded: preferential selectivity toward Sm.5HTR
same,inhibition of 5-HT evoked cAMP generation through Sm.5HTRL,Sm.5HTRL,inhibited 5-HT evoked cAMP generation
CN1CCN(C2=Nc3cc(Cl)ccc3Nc3ccccc32)CC1 [clozapine],acute inhibition of 5-HT (10μM) response at Sm.5HTR,Sm.5HTR [1],Inhibition of 5-HT response
CC1CCN(CC[C@H]2CCCN2S(=O)(=O)c2cccc(O)c2)CC1 [SB269970],activity at Sm.5HTR,Sm.5HTR [1],modest effects
same,activity at Sm.5HTR,Sm.5HTR [1]; listed as SB 269970,completely lacked activity
CN1C[C@H](C(=O)N[C@]2(C)O[C@@]3(O)[C@@H]4CCCN4C(=O)[C@H](Cc4ccccc4)N3C2=O)C=C2c3cccc4[nH]cc(c34)C[C@H]21 [ergotamine],EC50,Sm.5HTR [1]; [5],232 nM
same,ligand type at Sm.5HTR,Sm.5HTR [1],Agonist
same,Emax,Sm.5HTR [1],78 ± 2%
same,EC50,Sm.5HTR [1]; pEC50 ± S.E.M,229 nM
"NCCc1c[nH]c2ccc(O)cc12 [5-HT, Serotonin]",effect on basal contractile rate of schistosomules,"[2]; exogenous addition, dose-dependent",increase in the basal contractile rate
same,EC50,"Sm.5HTRL; F22 sensor with IBMX, read-out: EC50 (cAMP generation, Sm.5HTRL)",200 ± 30 nM
same,EC80,Sm.5HTRL; HEK293,800 nM
same,greater sensitivity of Sm.5HTRL vs Sm.5HTR,Sm.5HTRL; ratio of 5-HT EC50 values,~ 10 fold
same,effect on movement of unpaired male and female worms,adult schistosomes; 5-HT application,significantly increased the movement
"CCN(CC)C(=O)[C@@H]1C=C2c3cccc4[nH]cc(c34)C[C@H]2N(C)C1 [LSD, lysergic acid diethylamide]",ligand type at Sm.5HTR,Sm.5HTR [1],Antagonist
same,Kb,"Sm.5HTR [1]; KB (affinity constant, Schild regression), right-shift of 5-HT dose-response",629 nM
same,inhibition of 5-HT evoked cAMP generation,Sm.5HTR [1]; at higher concentrations (>10μM),almost complete inhibition
same,agonist efficacy at Sm.5HTR,Sm.5HTR [1],no efficacy
same,Kb,"Sm.5HTR [1]; pKB ± S.E.M, Schild regression",631 nM
CN1C[C@H](CNC(=O)OCc2ccccc2)C[C@@H]2c3cccc4c3c(cn4C)C[C@H]21 [metergoline],ligand type at Sm.5HTR,Sm.5HTR [1],Antagonist
same,Kb,"Sm.5HTR [1]; Schild regression, read-out: pKB ± S.E.M (converted)",4570 nM
same,agonist efficacy at Sm.5HTR,Sm.5HTR [1],no efficacy
same,acute inhibition of 5-HT (10μM) response at Sm.5HTR,"Sm.5HTR [1]; drug 10μM, preincubation",Inhibition of 5-HT response
same,Kb,"Sm.5HTR [1]; right-shift of 5-HT dose-response, read-out: KB (affinity constant, Schild regression)",4530 nM
same,inhibition of Sm.5HTR after antagonist wash-out,Sm.5HTR [3],long-lasting inhibition
O=S(=O)(c1ccccc1)c1cnc2c(N3CCNCC3)cccc2c1 [SB742457],activity at Sm.5HTR,Sm.5HTR [1],completely lacked activity; also recorded: modest effects
same,inhibition of Hs.5HT7R,Hs.5HT7R; Fig 4,potent inhibitors
COc1ccc2cc3[n+](cc2c1OC)CCc1cc2c(cc1-3)OCO2 [berberine],GPCR inhibition profile compared with rotundine,Sm.5HTR [1],decreased potency and selectivity for Sm.5HTR
